Reference: US20140343159A1, “FORMULATION OF SMALL ADRENERGIC AGONIST SALT FORMS IN ORGANIC SOLVENTS” (PROCERTUS BIOPHARM, INC., priority 2011, published 2014)
Values belong to the molecule of their own block, whether it stands above or below them.

Experiments:
human skin = experiment: Skin blanch response in human skin following topical application; type: in vivo; conditions: 600 mM solution in 70:30 ethanol:water compared with supersaturated 300 mM (−) norepinephrine-tartrate
Description: Appropriate weights of each dry norepinephrine salt were weighed into clear glass vials, and appropriate volumes of ethanol and water at a ratio of 70:30, by volume, were added to achieve the indicated norepinephrine concentrations. The (+/−) norepinephrine-HCl dissolved to clarity with 5 second mixing at room temperature, and the (−) norepinephrine-tartrate required heating to 60° C. for 5 minutes and then mixing to clarify. 25 μL aliquots of each formulation were applied using a pipettor over multiple 2×2 cm patches of skin on volunteer's arm over a 20 second period. Images to record skin blanch onset, degree and duration were begun at 2 minute post-application. % Skin Blanch scores were assigned by visual evaluation. 100% Skin Blanch equaled the skin blanch seen after pressing firmly on the skin and quickly releasing.
Equal concentrations (300 mM) of the (−) norepinephrine enantiomer, either alone as the tartrate salt or in the presence of an equal amount of the (+) enantiomer HCl salt, were applied to human skin in the ethanol:water (70:30) delivery vehicle, and the pharmacologic efficacy of the (−) norepinephrine was scored based upon its ability to induce a skin blanch response by binding to al adrenergic receptors in the smooth muscle cells of the subcutaneous dermal blood vessels. […]

[1] = type: physicochemical
Description: (§1) Known weights of (−) norepinephrine-tartrate dry powder were added to individual, 2.0 ml clear glass vials. An appropriate volume of ethanol and water at a ratio of 70:30 by volume solvent was then added to achieve the indicated concentrations. Sealed vials were vortexed for five seconds and then left at room temperature for 24 hr in the dark before examination to determine turbidity of liquid due to undissolved material.
Known weights of (−) norepinephrine-tartrate or (+/−) norepinephrine-HCl dry powders were added to individual, 2.0 ml, clear glass vials. An appropriate volume of ethanol to water (70:30) solvent was then added to achieve the indicated concentrations. Sealed vials were vortexed for five seconds and then left at room temperature for 24 hr in the dark before examination to determine turbidity of liquid due to undissolved material. Table 2, below, provides the solubility of (+/−) norepinephrine-HCl and (−) norepinephrine-tartrate in topical delivery vehicle of ethanol and water (70:30).
as §1, with “the indicated norepinephrine salts” for “(−) norepinephrine-tartrate dry powder”, “ml,” for “ml”, “of” for “of ethanol and water at a ratio of”, “(ethanol:water)” for “by volume”, “hr” for “hr in the dark”

[2] = Stability of (−) norepinephrine-HCl dissolved in water at 1000 mM; type: physicochemical; conditions: 4° C. and 24° C., weeks/months following formulation
Description: (−) norepinephrine-HCl dissolved in water at 1000 mM is stable at 4° C. and 24° C. as determined by the absence of precipitate or colored oxidation products in the weeks/months following initial formulation. Previous formulations of norepinephrine-tartrate in saline (e.g., Levophed®, Hospira, Inc., Lake Forest, Ill.) have norepinephrine concentrations of 1-5 mM.
(−) norepinephrine-HCl was weighed into a glass vial. An appropriate volume of N2-purged water ([…] with vigorous N2 bubbling and stir bar) was delivered to the vial. The vial headspace was flushed with N2 gas and the vial was sealed. The vial was vortexed for 5 seconds to produce a clear solution. A weighed amount of dry citric acid solid was added to the (−) norepinephrine-HCl solution, the vial headspace was flushed with N2 and the vial was sealed. The vial was vortexed until the solution was clear. 200 μl aliquots of (−) norepinephrine-HCl+citric acid solution were added to 2.0 ml, clear, glass vials (previously rinsed with ethanol and dried). The vial headspaces were optionally flushed with N2 gas and the vials were sealed. 3.0 ml of (−) norepinephrine-HCl+citric acid solution was transferred to a glass vial, an appropriate dry weight of sodium EDTA was added to the vial, the vial headspace was flushed with N2 gas, the vial was sealed and the vial was vortexed until clear. […]

radiation-treated rats [3] = experiment: Radiodermatitis in radiation-treated rats after topical vasoconstrictor; type: in vivo, rat; conditions: two rats, 600 mM in ethanol:water (70:30) delivery vehicle applied prior to irradiation (FIG. 1)
Description: In the model, a topical vasoconstrictor was applied to a shaved area on the backs of rats prior to irradiation with a Cs^137 source. The severity of radiodermatitis was scored on day 13. Vasoconstriction at the topical treatment site was evidenced by the transient occurrence of a visible skin blanch that correlates with therapeutic efficacy in the rat radiodermatitis model. This skin blanch may serve as a surrogate efficacy marker for clinical studies. The general strategy of using topical vasoconstrictors to prevent these cancer therapy side effects is addressed in U.S. Pub. No 2007/0077219, which is incorporated by reference in its entirety herein.

radiation-treated rats [4] = conditions: topical, applied prior to irradiation of rat skin; cited from earlier work
β2 adrenergic receptor = β2 adrenergic receptor (Homo sapiens, UniProt P07550); conditions: cited from earlier work
[5] = super-saturated solutions for topical application; cited from earlier work

β2 adrenergic receptor, sequence (P07550 whole entry, species assumed): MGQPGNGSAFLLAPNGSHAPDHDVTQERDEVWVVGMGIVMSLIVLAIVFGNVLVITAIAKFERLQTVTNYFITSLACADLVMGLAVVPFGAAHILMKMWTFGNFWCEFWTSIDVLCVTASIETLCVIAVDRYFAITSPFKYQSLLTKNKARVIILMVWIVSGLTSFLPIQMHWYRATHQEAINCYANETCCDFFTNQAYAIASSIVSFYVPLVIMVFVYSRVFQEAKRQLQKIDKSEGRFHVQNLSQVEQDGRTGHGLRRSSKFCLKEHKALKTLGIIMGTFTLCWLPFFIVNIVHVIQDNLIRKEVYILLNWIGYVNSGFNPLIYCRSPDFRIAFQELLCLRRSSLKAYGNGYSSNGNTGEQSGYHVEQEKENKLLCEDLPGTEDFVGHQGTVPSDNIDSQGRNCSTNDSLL

- maximum solubility [1]: at least 2000 mM
- solubility relative to (−) norepinephrine-tartrate [1]: at least 10 fold
Molecule: Cl.NCC(O)c1ccc(O)c(O)c1 (racemic) [(+/−) norepinephrine-HCl]
- vasoconstrictor activity in inducing a skin blanch response (human skin): at least the same activity

- stability by absence of precipitate or colored oxidation products [2]: stable
- maximum solubility [1]: at least 2000 mM
Molecule: Cl.NC[C@H](O)c1ccc(O)c(O)c1 [(−) norepinephrine-HCl]
- occurrence of radiodermatitis (radiation-treated rats [3]): absence of radiodermatitis

- maximum solubility [1]: 200 mM
- solubility limit [1]: about 200 mM
Molecule: (−) norepinephrine-tartrate
- stability of super-saturated solution [5]: stable for only a few hours

The next lines start with the molecule.

Molecule: CNC[C@H](O)c1ccc(O)c(O)c1 [epinephrine]
- protection against development of radiation dermatitis (radiation-treated rats [4]): complete protection

Molecule: NC[C@H](O)c1ccc(O)c(O)c1 [norepinephrine]
- binding to the β2 adrenergic receptor (β2 adrenergic receptor): does not bind
- protection against development of radiation dermatitis (radiation-treated rats [4]): the same protection
